Measured values reported in patent US11111238B2, “Coumarin derivatives, processes for their preparation and uses thereof for the treatment of cancer” (Lead Discovery Center GmbH, priority 2017, dated 2021).

These compounds were tested against mitochondrial RNA-polymerase (POLRMT) (Mus musculus, UniProt Q8BKF1) (assay: Homogeneous TR-FRET assay for mitochondrial transcription activity). Conditions: homogeneous TR-FRET assay according to Example 4; activity class.
Assay type: biochemical
Summary of the method: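 TR-FRET read-out (340 nm excitation, 665 nm emission) of a 407 bp transcript captured by Eu-streptavidin/biotin donor and ATTO647N acceptor DNA probes after EDTA stop. Transcription ran 2 h at RT with 500 μM […], mouse POLRMT/TFAM/TFB2M and LSP-plasmid template, after 10 min compound preincubation (10 μM or dilution series).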

Sequence of mitochondrial RNA-polymerase (POLRMT) (Q8BKF1 42-1207): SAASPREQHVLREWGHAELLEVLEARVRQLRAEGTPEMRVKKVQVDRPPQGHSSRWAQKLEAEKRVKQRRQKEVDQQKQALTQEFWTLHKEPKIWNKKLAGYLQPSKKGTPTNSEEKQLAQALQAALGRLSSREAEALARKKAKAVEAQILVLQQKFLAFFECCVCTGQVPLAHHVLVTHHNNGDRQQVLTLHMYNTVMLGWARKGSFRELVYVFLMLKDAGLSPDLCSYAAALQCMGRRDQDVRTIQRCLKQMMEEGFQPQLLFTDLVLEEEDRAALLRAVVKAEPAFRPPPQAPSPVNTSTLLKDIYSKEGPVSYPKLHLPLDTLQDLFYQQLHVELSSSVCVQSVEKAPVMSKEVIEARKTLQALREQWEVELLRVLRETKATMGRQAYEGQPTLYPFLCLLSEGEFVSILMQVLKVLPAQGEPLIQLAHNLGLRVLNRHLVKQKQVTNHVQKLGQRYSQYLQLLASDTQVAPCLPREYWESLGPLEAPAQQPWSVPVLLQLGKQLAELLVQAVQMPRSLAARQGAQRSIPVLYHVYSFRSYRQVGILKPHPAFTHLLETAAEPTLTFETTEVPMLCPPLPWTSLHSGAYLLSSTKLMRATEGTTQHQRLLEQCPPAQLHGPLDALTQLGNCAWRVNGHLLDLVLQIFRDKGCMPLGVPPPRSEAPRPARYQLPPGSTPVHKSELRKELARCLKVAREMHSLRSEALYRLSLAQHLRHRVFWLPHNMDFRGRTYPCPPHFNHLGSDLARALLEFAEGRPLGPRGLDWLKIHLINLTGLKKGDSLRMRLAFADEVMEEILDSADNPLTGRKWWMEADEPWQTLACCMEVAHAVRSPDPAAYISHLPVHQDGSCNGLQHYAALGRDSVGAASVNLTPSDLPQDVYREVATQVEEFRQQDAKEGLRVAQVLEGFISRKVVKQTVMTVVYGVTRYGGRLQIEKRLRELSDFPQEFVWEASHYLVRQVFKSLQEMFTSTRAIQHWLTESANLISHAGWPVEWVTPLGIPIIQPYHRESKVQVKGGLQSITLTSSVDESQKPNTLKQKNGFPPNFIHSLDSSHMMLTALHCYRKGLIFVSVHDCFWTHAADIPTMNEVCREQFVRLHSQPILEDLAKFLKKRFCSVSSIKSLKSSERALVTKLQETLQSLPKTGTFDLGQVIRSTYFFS

Compound	IC50
C[C@@H](Oc1ccc2c(-c3ccc(F)cc3Cl)cc(=O)oc2c1)C(=O)N1CCC[C@H](CC(N)=O)C1 [Compound 133, 2-[(3R)-1-[(2R)-2-[4-(2-chloro-4-fluoro-phenyl)-2-oxo-chromen-7-yl]oxypropanoyl]-3-piperidyl]acetamide]	< 0.02 µM
CCc1ccccc1-c1cc(=O)oc2cc(O[C@H](C)C(=O)N3CCC[C@H](C(=O)O)C3)ccc12 [Compound 134, (3S)-1-[(2R)-2-[4-(2-ethylphenyl)-2-oxo-chromen-7-yl]oxypropanoyl]piperidine-3-carboxylic acid]	< 0.02 µM
COC(=O)[C@@H]1CN(C(=O)[C@@H](C)Oc2ccc3c(-c4ccc(F)cc4Cl)cc(=O)oc3c2)CCN1 [Compound 135, methyl (2S)-4-[(2R)-2-[4-(2-chloro-4-fluoro-phenyl)-2-oxo-chromen-7-yl]oxypropanoyl]piperazine-2-carboxylate]	0.1 to 1 µM
C[C@@H](Oc1ccc2c(-c3ccc(F)cc3Cl)cc(=O)oc2c1)C(=O)N1CCN[C@H](C(=O)O)C1 [Compound 138, (2S)-4-[(2R)-2-[4-(2-chloro-4-fluoro-phenyl)-2-oxo-chromen-7-yl]oxypropanoyl]piperazine-2-carboxylic acid]	0.02 to 0.1 µM
COCCc1ccc(NC(=O)[C@@H](C)Oc2ccc3c(-c4ccc(F)cc4Cl)cc(=O)oc3c2)cc1 [Compound 140, (2R)-2-[4-(2-chloro-4-fluoro-phenyl)-2-oxo-chromen-7-yl]oxy-N-[4-(2-methoxyethyl)phenyl]propanamide]	0.1 to 1 µM
COC(=O)C[C@H]1CCN(C(=O)[C@@H](C)Oc2ccc3c(-c4ccc(F)cc4Cl)cc(=O)oc3c2)C1 [Compound 142, methyl 2-[(3R)-1-[(2R)-2-[4-(2-chloro-4-fluoro-phenyl)-2-oxo-chromen-7-yl]oxypropanoyl]pyrrolidin-3-yl]acetate]	0.02 to 0.1 µM
COC(=O)c1cncc(NC(=O)[C@@H](C)Oc2ccc3c(-c4ccc(F)cc4Cl)cc(=O)oc3c2)c1 [Compound 143, methyl 5-[[(2R)-2-[4-(2-chloro-4-fluoro-phenyl)-2-oxo-chromen-7-yl]oxypropanoyl]amino]pyridine-3-carboxylate]	0.1 to 1 µM
COC(=O)C[C@@H]1CCN(C(=O)[C@@H](C)Oc2ccc3c(-c4ccc(F)cc4Cl)cc(=O)oc3c2)C1 [Compound 144, methyl 2-[(3S)-1-[(2R)-2-[4-(2-chloro-4-fluoro-phenyl)-2-oxo-chromen-7-yl]oxypropanoyl]pyrrolidin-3-yl]acetate]	0.02 to 0.1 µM
COC(=O)c1ccnc(NC(=O)[C@@H](C)Oc2ccc3c(-c4ccc(F)cc4Cl)cc(=O)oc3c2)c1 [Compound 146, methyl 2-[[(2R)-2-[4-(2-chloro-4-fluoro-phenyl)-2-oxo-chromen-7-yl]oxypropanoyl]amino]pyridine-4-carboxylate]	0.1 to 1 µM
C[C@@H](Oc1ccc2c(-c3ccc(F)cc3Cl)cc(=O)oc2c1)C(=O)Nc1cncc(C(=O)O)c1 [Compound 148, 5-[[(2R)-2-[4-(2-chloro-4-fluoro-phenyl)-2-oxo-chromen-7-yl]oxypropanoyl]amino]pyridine-3-carboxylic acid]	< 0.02 µM
C[C@@H](Oc1ccc2c(-c3ccc(F)cc3Cl)cc(=O)oc2c1)C(=O)N1CCN[C@@H](C(=O)O)C1 [Compound 150, (2R)-4-[(2R)-2-[4-(2-chloro-4-fluoro-phenyl)-2-oxo-chromen-7-yl]oxypropanoyl]piperazine-2-carboxylic acid]	0.02 to 0.1 µM
C[C@@H](Oc1ccc2c(-c3ccc(F)cc3Cl)cc(=O)oc2c1)C(=O)Nc1cccc(C(=O)O)n1 [Compound 151, 6-[[(2R)-2-[4-(2-chloro-4-fluoro-phenyl)-2-oxo-chromen-7-yl]oxypropanoyl]amino]pyridine-2-carboxylic acid]	< 0.02 µM
COC(=O)c1ccc(NC(=O)[C@@H](C)Oc2ccc3c(-c4ccc(F)cc4Cl)cc(=O)oc3c2)cn1 [Compound 153, methyl 5-[[(2R)-2-[4-(2-chloro-4-fluoro-phenyl)-2-oxo-chromen-7-yl]oxypropanoyl]amino]pyridine-2-carboxylate]	0.02 to 0.1 µM
C[C@@H](Oc1ccc2c(-c3ccc(F)cc3Cl)cc(=O)oc2c1)C(=O)Nc1ccc(C(=O)O)nc1 [Compound 154, 5-[[(2R)-2-[4-(2-chloro-4-fluoro-phenyl)-2-oxo-chromen-7-yl]oxypropanoyl]amino]pyridine-2-carboxylic acid]	< 0.02 µM
COC(=O)c1cc(NC(=O)[C@@H](C)Oc2ccc3c(-c4ccc(F)cc4Cl)cc(=O)oc3c2)ccn1 [Compound 156, methyl 4-[[(2R)-2-[4-(2-chloro-4-fluoro-phenyl)-2-oxo-chromen-7-yl]oxypropanoyl]amino]pyridine-2-carboxylate]	0.02 to 0.1 µM
COC(=O)[C@H]1CCN(C(=O)[C@@H](C)Oc2ccc3c(-c4ccc(F)cc4Cl)cc(=O)oc3c2)C1 [Compound 157, methyl (3S)-1-[(2R)-2-[4-(2-chloro-4-fluoro-phenyl)-2-oxo-chromen-7-yl]oxypropanoyl]pyrrolidine-3-carboxylate]	0.02 to 0.1 µM
Cc1cc(F)ccc1-c1cc(=O)oc2cc(O[C@H](C)C(=O)N3CCC[C@H](C(=O)O)C3)ccc12 [Compound 158, (3S)-1-[(2R)-2-[4-(4-fluoro-2-methyl-phenyl)-2-oxo-chromen-7-yl]oxypropanoyl]piperidine-3-carboxylic acid]	< 0.02 µM
C[C@@H](Oc1ccc2c(-c3ccc(F)cc3Cl)cc(=O)oc2c1)C(=O)Nc1ccnc(C(=O)O)c1 [Compound 160, 4-[[(2R)-2-[4-(2-chloro-4-fluoro-phenyl)-2-oxo-chromen-7-yl]oxypropanoyl]amino]pyridine-2-carboxylic acid]	< 0.02 µM
C[C@@H](Oc1ccc2c(-c3ccccc3C#N)cc(=O)oc2c1)C(=O)N1CCC[C@H](C(=O)O)C1 [Compound 162, (3S)-1-[(2R)-2-[4-(2-cyanophenyl)-2-oxo-chromen-7-yl]oxypropanoyl]piperidine-3-carboxylic acid]	0.02 to 0.1 µM
C[C@@H](Oc1ccc2c(-c3c(Cl)cccc3Cl)cc(=O)oc2c1)C(=O)N1CCC[C@H](C(=O)O)C1 [Compound 163, (3S)-1-[(2R)-2-[4-(2,6-dichlorophenyl)-2-oxo-chromen-7-yl]oxypropanoyl]piperidine-3-carboxylic acid]	0.1 to 1 µM
CCOC(=O)C(C)Oc1ccc2c(-c3ccccc3F)cc(=O)oc2c1 (stereo not shown) [Compound 175, ethyl 2-[4-(2-fluorophenyl)-2-oxo-chromen-7-yl]oxypropanoate]	0.1 to 1 µM
CCOC(=O)C(C)Oc1ccc2c(-c3c(F)cccc3F)cc(=O)oc2c1 (stereo not shown) [Compound 176, ethyl 2-[4-(2,6-difluorophenyl)-2-oxo-chromen-7-yl]oxypropanoate]	1 to 5 µM
